For this test, the system named is C57BL/6NTac mice. The experiment in a line: Intraperitoneal Insulin Tolerance Test (IP-ITT). Format: in vivo. The conditions noted are these: intraperitoneal injection, two doses per compound (Table 16), lean male C57BL/6NTac mice, 30 to 360 minutes after dose. How it is done:
Groups of N=6-8 animals per group were randomized by weight (average about 30 grams). Two days prior to study, the mice were conditioned to dosing with an intraperitoneal injection of 0.9% Sodium Chloride solution at 5 ml/kg dosing volume. On the morning of the study, food was removed two or four hours prior to the study. Blood glucose concentrations were determined at T=0 min (baseline) using a Glucometer. […] Blood glucose levels were determined from tail bleeds taken between 30 to 360 minutes after dose.

For “B29,B29′-suberoyl-(insulin)2 [Compound B, reference compound]”, the “blood glucose profile at low versus high dose” value is “increased glucose lowering potency”.

Source of the values: patent publication US20170355743A1, “INSULIN RECEPTOR PARTIAL AGONISTS” (Merck Sharp & Dohme Corp., priority 2014, published 2017).
